Measurements: patent US6503881B2 (priority 1996, dated 2003)
Values after ≈ are worked out from the molar mass of the structure shown. Read-outs that look alike come from different tables or passages of the source. Peptide text beside a SMILES is read from it.

Experiments:
[1] = test system: microorganisms with acquired resistance
[2] = test system: inherently resistant microorganisms; details: S. aureus SA014 MRSA; pair Tobramycin / MBI 21A1
bacterial isolates = details: S. aureus SA25 (Ciprofloxacin section)
[3] = S. haemolyticus SH8463, pair Erythromycin / MBI 31
[4] = S. haemolyticus SH8472, pair Erythromycin / MBI 31
[5] = S. haemolyticus SH8564, pair Erythromycin / MBI 31
[6] = S. haemolyticus SH8575, pair Erythromycin / MBI 31

CC[C@H]1OC(=O)[C@H](C)[C@@H](O[C@H]2C[C@@](C)(OC)[C@@H](O)[C@H](C)O2)[C@H](C)[C@@H](O[C@@H]2O[C@H](C)C[C@H](N(C)C)[C@H]2O)[C@](C)(O)C[C@@H](C)C(=O)[C@H](C)[C@@H](O)[C@]1(C)O [Erythromycin, reference compound]
MIC comb. ([1]; S. aureus SA7609, pair Erythromycin / MBI 26): 0.5 µg/mL (≈ 0.681 µM) | MIC comb. ([1]; S. aureus SA7795, pair Erythromycin / MBI 26): 1 µg/mL (≈ 1.36 µM) | MIC comb. ([1]; S. aureus SA7795, pair Erythromycin / MBI 31): 4 µg/mL (≈ 5.45 µM) | MIC comb. ([1]; S. aureus SA7796, pair Erythromycin / MBI 26): 1 µg/mL (≈ 1.36 µM) | MIC comb. ([1]; S. aureus SA7796, pair Erythromycin / MBI 31): 2 µg/mL (≈ 2.73 µM) | MIC comb. ([1]; S. aureus SA7818, pair Erythromycin / MBI 31): 2 µg/mL (≈ 2.73 µM) | MIC comb. ([1]; S. epidermidis SE8410, pair Erythromycin / MBI 26): 0.5 µg/mL (≈ 0.681 µM) | MIC comb. ([1]; S. epidermidis SE8410, pair Erythromycin / MBI 31): 0.5 µg/mL (≈ 0.681 µM) | MIC comb. ([1]; S. epidermidis SE8411, pair Erythromycin / MBI 26): 0.5 µg/mL (≈ 0.681 µM) | MIC comb. ([1]; S. epidermidis SE8411, pair Erythromycin / MBI 31): 0.5 µg/mL (≈ 0.681 µM) | MIC comb. ([1]; S. epidermidis SE8503, pair Erythromycin / MBI 26): 0.5 µg/mL (≈ 0.681 µM) | MIC comb. ([1]; S. epidermidis SE8503, pair Erythromycin / MBI 31): 0.5 µg/mL (≈ 0.681 µM) | MIC comb. ([1]; S. epidermidis SE8565, pair Erythromycin / MBI 26): 0.5 µg/mL (≈ 0.681 µM) | MIC comb. ([1]; S. epidermidis SE8565, pair Erythromycin / MBI 31): 0.5 µg/mL (≈ 0.681 µM) | MIC comb. ([1]; S. haemolyticus SH8463, pair Erythromycin / MBI 26): 0.5 µg/mL (≈ 0.681 µM) | MIC comb. [1, 3]: 0.5 µg/mL (≈ 0.681 µM) | MIC comb. ([1]; S. haemolyticus SH8472, pair Erythromycin / MBI 26): 0.5 µg/mL (≈ 0.681 µM) | MIC comb. [1, 4]: 0.5 µg/mL (≈ 0.681 µM) | MIC comb. [1, 5]: 2 µg/mL (≈ 2.73 µM) | MIC comb. ([1]; S. haemolyticus SH8575, pair Erythromycin / MBI 26): 2 µg/mL (≈ 2.73 µM) | MIC comb. [1, 6]: 2 µg/mL (≈ 2.73 µM) | MIC comb. ([1]; S. haemolyticus SH8578, pair Erythromycin / MBI 26): 0.5 µg/mL (≈ 0.681 µM) | MIC comb. ([1]; S. haemolyticus SH8578, pair Erythromycin / MBI 31): 0.5 µg/mL (≈ 0.681 µM) | MIC comb. ([1]; S. haemolyticus SH8597, pair Erythromycin / MBI 26): 0.5 µg/mL (≈ 0.681 µM)

CC[C@H](C)[C@H](NC(=O)[C@H](C)NC(=O)[C@@H]1CCCN1C(=O)CNC(=O)[C@H](C)NC(=O)[C@@H](NC(=O)[C@H](CCCCN)NC(=O)[C@H](CC(C)C)NC(=O)CNC(=O)[C@H](CO)NC(=O)[C@H](CC(C)C)NC(=O)[C@@H](NC(=O)[C@H](CCCNC(=N)N)NC(=O)[C@H](CCCNC(=N)N)NC(=O)[C@H](Cc1c[nH]c2ccccc12)NC(=O)[C@H](Cc1c[nH]c2ccccc12)NC(=O)[C@H](CCCCN)NC(=O)[C@@H](N)CCCCN)C(C)C)[C@@H](C)O)C(=O)N[C@@H](CCC(N)=O)C(=O)N[C@@H](CO)C(=O)N[C@H](C(=O)N[C@@H](CC(C)C)C(=O)N[C@@H](CC(N)=O)C(=O)N[C@@H](CCCCN)C(=O)O)C(C)C [MBI 21A1, KKWWRRVLSGLKTAGPAIQSVLNK] (H-KKWWRRVLSGLKTAGPAIQSVLNK-OH; N-terminus and C-terminus assumed)
MIC in combination [2]: 16 µg/mL | Peptide MI Alone (bacterial isolates): 32 µg/mL

G K P R P Y S P I P T S P R P I R Y [MBI 31]
Peptide MIC ([1]; S. aureus SA7796, pair Methicillin / MBI 31): 16 µg/mL | Peptide MIC ([1]; S. aureus SA7797, pair Methicillin / MBI 31): 16 µg/mL | Peptide MIC ([1]; S. aureus SA7823, pair Methicillin / MBI 31): 0.5 µg/mL | Peptide MIC ([1]; S. aureus SA7834, pair Methicillin / MBI 31): 32 µg/mL | Peptide MIC ([1]; S. aureus SA7835, pair Methicillin / MBI 31): 16 µg/mL | Peptide MIC [1, 3]: 0.5 µg/mL | Peptide MIC [1, 4]: 0.5 µg/mL | Peptide MIC [1, 5]: 0.5 µg/mL | Peptide MIC [1, 6]: 0.5 µg/mL

I L K K F P F F P F R R K [MBI 11A1CN]
Peptide MIC + Tobramycin ([1]; P. aeruginosa PA026): 0.125 µg/mL | Ciprofloxacin MIC + Peptide ([1]; S. aureus SA10): 0.125 µg/mL | Peptide MIC + Ciprofloxacin ([1]; S. aureus SA10): 64 µg/mL | Ciprofloxacin MIC + Peptide ([1]; S. aureus SA25): 0.125 µg/mL | Peptide MIC + Tobramycin ([1]; S. maltophilia SMA030): 64 µg/mL | Tobramycin MIC + Peptide ([1]; S. maltophilia SMA030): 2 µg/mL | FIC ([1]; peptide + Ciprofloxacin, S. aureus SA25): 0.53 | FIC ([1]; peptide + Tobramycin, S. maltophilia SMA029): 0.16 | FIC ([1]; peptide + Tobramycin, S. maltophilia SMA030): 0.27 | MIC (bacteria; A. calcoaceticus AC002): 16 µg/mL | MIC (bacteria; E. cloacae ECL007): >128 µg/mL | MIC (bacteria; E. coli ECO002): 32 µg/mL | MIC (bacteria; E. faecalis EFS002): 32 µg/mL | MIC (bacteria; E. faecium EFM002): 1 µg/mL | MIC (bacteria; H. influenzae HIN002): >128 µg/mL | MIC (bacteria; K. pneumoniae KP002): >128 µg/mL | MIC (bacteria; P. aeruginosa PA004): >128 µg/mL | MIC (bacteria; P. vulgaris SBPV1): >128 µg/mL | MIC (bacteria; S. aureus SA005): 8 µg/mL | MIC (bacteria; S. epidermidis SE002): 16 µg/mL | MIC (bacteria; S. maltophilia SMA002): >128 µg/mL | MIC (bacteria; S. marcescens SBSM2): >128 µg/mL | MIC (bacteria; S. pneumoniae SBSPN2): >128 µg/mL

I L R R W P W W P W R R K [MBI 11B1CN]
Peptide MIC + Vancomycin ([1]; E. faecalis EFS003): 32 µg/mL | Vancomycin MIC + Peptide ([1]; E. faecalis EFS003): 4 µg/mL | Peptide MIC Alone ([1]; E. faecalis EFS003 (8. Vancomycin)): >128 µg/mL | Peptide MIC + Vancomycin ([1]; E. faecalis EFS006): 0.25 µg/mL | Vancomycin MIC + Peptide ([1]; E. faecalis EFS006): 4 µg/mL | Peptide MIC Alone ([1]; E. faecalis EFS006 (8. Vancomycin)): 128 µg/mL | Peptide MIC + Vancomycin ([1]; E. faecalis EFS010): 8 µg/mL | Vancomycin MIC + Peptide ([1]; E. faecalis EFS010): 1 µg/mL | Peptide MIC Alone ([1]; E. faecalis EFS010 (8. Vancomycin)): 128 µg/mL | Peptide MIC + Vancomycin ([1]; E. faecalis EFS014): 2 µg/mL | Vancomycin MIC + Peptide ([1]; E. faecalis EFS014): 1 µg/mL | Peptide MIC Alone ([1]; E. faecalis EFS014 (8. Vancomycin)): 4 µg/mL | Peptide MIC + Vancomycin ([1]; E. faecium EFM004): 16 µg/mL | Vancomycin MIC + Peptide ([1]; E. faecium EFM004): 0.5 µg/mL | Peptide MIC Alone ([1]; E. faecium EFM004 (8. Vancomycin)): 32 µg/mL | Peptide MIC + Vancomycin ([1]; E. faecium EFM007): 16 µg/mL | Vancomycin MIC + Peptide ([1]; E. faecium EFM007): 4 µg/mL | Peptide MIC Alone ([1]; E. faecium EFM007 (8. Vancomycin)): 64 µg/mL | Peptide MIC + Vancomycin ([1]; E. faecium EFM009): 8 µg/mL | Vancomycin MIC + Peptide ([1]; E. faecium EFM009): 4 µg/mL | Peptide MIC Alone ([1]; E. faecium EFM009 (8. Vancomycin)): 64 µg/mL | FIC ([1]; peptide + Vancomycin, E. faecalis EFS003): 0.63 | FIC ([1]; peptide + Vancomycin, E. faecalis EFS006): 0.50 | FIC ([1]; peptide + Vancomycin, E. faecalis EFS010): 0.13 | FIC ([1]; peptide + Vancomycin, E. faecalis EFS014): 0.51 | FIC ([1]; peptide + Vancomycin, E. faecium EFM004): 0.50 | FIC ([1]; peptide + Vancomycin, E. faecium EFM007): 0.28 | FIC ([1]; peptide + Vancomycin, E. faecium EFM009): 0.25 | MIC (bacteria; A. calcoaceticus AC001): 32 µg/mL | MIC (bacteria; E. cloacae ECL007): >128 µg/mL | MIC (bacteria; E. coli ECO003): 8 µg/mL | MIC (bacteria; E. faecalis EFS004): 8 µg/mL | MIC (bacteria; E. faecium EFM002): 2 µg/mL | MIC (bacteria; K. pneumoniae KP002): 64 µg/mL | MIC (bacteria; P. aeruginosa PA005): >128 µg/mL | MIC (bacteria; S. aureus SA005): 2 µg/mL | MIC (bacteria; S. epidermidis SE001): 2 µg/mL | MIC (bacteria; S. maltophilia SMA001): 64 µg/mL | MIC (bacteria; S. marcescens SMS004): >128 µg/mL
